Some test systems named below: SK-OV-3 ovarian; CCRF-CEM leukemia; HOP-62 NSCLC; NCI-H460 lung; ACHN renal; SF-539 CNS; SK-MEL-5 melanoma; MALME-3M melanoma; KM12 colon; U251 CNS; COLO 205 colon; RPMI-8226 leukemia; UACC-62 melanoma; OVCAR-3 ovarian; IGROV1 ovarian; OVCAR-5 ovarian; HCT-116 colon; LOX IMVI melanoma.
What all share (assay): DTP human tumour cell line panel, 48 h

These results are taken from PubChem BioAssay (NCI).

Each structure is given as a SMILES string.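 Results reflect a 48-hour exposure of cells in 96-well plates to compound at five concentrations. TGI: concentration producing complete growth inhibition.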

As to `O=C1C=C(Nc2ccccc2C(=O)CC(=O)C(=O)Nc2ccc(Cl)c(Cl)c2)c2ccccc2C1=O`, the TGI with SK-OV-3 ovarian, with CCRF-CEM leukemia, in the experiment with HOP-62 NSCLC, with NCI-H460 lung, in the experiment with ACHN renal and with SF-539 CNS was above 100 µM throughout. Moreover, the TGI is 20.4 µM in the experiment with SK-MEL-5 melanoma; 29.8 µM in the experiment with MALME-3M melanoma; above 100 µM with KM12 colon; above 100 µM in the experiment with U251 CNS; above 100 µM in the experiment with COLO 205 colon; above 100 µM in the experiment on RPMI-8226 leukemia. Besides, the concentration for total growth inhibition (TGI) was 62.2 µM in the experiment with UACC-62 melanoma, above 100 µM in the experiment on OVCAR-3 ovarian, above 100 µM with IGROV1 ovarian and above 100 µM with OVCAR-5 ovarian.

As to `COc1ccc(/C(Cl)=C/c2ccc(Cl)c(Cl)c2)cc1`, the TGI in the experiment with SK-OV-3 ovarian is above 100 µM; in the experiment with CCRF-CEM leukemia it was 47.8 µM; with HOP-62 NSCLC, 79 µM; with HCT-116 colon, 80.3 µM; with ACHN renal, 91.6 µM; with SF-539 CNS, above 100 µM. Also, the TGI is 50.3 µM in the experiment on SK-MEL-5 melanoma; 56.8 µM in the experiment with MALME-3M melanoma; 50.4 µM with U251 CNS; 54 µM in the experiment on COLO 205 colon; 53.9 µM in the experiment on RPMI-8226 leukemia; above 100 µM with UACC-62 melanoma. This molecule also yielded a TGI in the experiment with IGROV1 ovarian above 100 µM.

With `CCOC(=O)c1cn2c([nH]c3ccccc32)c(C#N)c1=O`, the TGI in the experiment on SK-OV-3 ovarian, in the experiment with CCRF-CEM leukemia, in the experiment on HOP-62 NSCLC, in the experiment with NCI-H460 lung, in the experiment with HCT-116 colon and in the experiment on ACHN renal was above 100 µM throughout. The TGI with SF-539 CNS is above 100 µM; in the experiment on SK-MEL-5 melanoma it was above 100 µM; in the experiment with MALME-3M melanoma, above 100 µM; with LOX IMVI melanoma, 56.8 µM; with KM12 colon, above 100 µM; in the experiment on U251 CNS, above 100 µM. Also, the TGI in the experiment on COLO 205 colon, in the experiment on UACC-62 melanoma, in the experiment on OVCAR-3 ovarian, with IGROV1 ovarian and in the experiment with OVCAR-5 ovarian was above 100 µM throughout.

As for `COC(=O)c1cc(C)n(NC(=O)OC(C)(C)C)c1C`, the TGI in the experiment with SK-OV-3 ovarian, in the experiment on CCRF-CEM leukemia, with HOP-62 NSCLC, in the experiment with NCI-H460 lung, in the experiment with HCT-116 colon and in the experiment on ACHN renal was above 100 µM each time. The TGI in the experiment with SF-539 CNS, with SK-MEL-5 melanoma, in the experiment with MALME-3M melanoma, in the experiment with LOX IMVI melanoma, with KM12 colon and in the experiment with U251 CNS was above 100 µM each time. In addition, the TGI in the experiment with COLO 205 colon, in the experiment on RPMI-8226 leukemia, in the experiment on UACC-62 melanoma, with OVCAR-3 ovarian, with IGROV1 ovarian and with OVCAR-5 ovarian was above 100 µM in each case.

For `C1=c2ccccc2=C2C(=C(c3ccccc3)C(c3ccccc3)=NN2c2ccccc2)S1`, the TGI in the experiment with SK-OV-3 ovarian, in the experiment with CCRF-CEM leukemia, in the experiment on HOP-62 NSCLC, in the experiment on NCI-H460 lung, in the experiment with HCT-116 colon and with ACHN renal was above 100 µM throughout. For the same molecule, the TGI in the experiment with SF-539 CNS, in the experiment with SK-MEL-5 melanoma, with MALME-3M melanoma, in the experiment on LOX IMVI melanoma, with KM12 colon and in the experiment with U251 CNS was above 100 µM each time. Besides, the TGI in the experiment on COLO 205 colon, in the experiment on RPMI-8226 leukemia, in the experiment with UACC-62 melanoma, in the experiment on IGROV1 ovarian and in the experiment with OVCAR-5 ovarian was above 100 µM throughout.

Turning to `Cn1c(N)c(-c2c3ccccc3nc3ccccc23)c(=O)n(C)c1=O`, the TGI in the experiment with SK-OV-3 ovarian, with CCRF-CEM leukemia, in the experiment on HCT-116 colon, in the experiment with SF-539 CNS, in the experiment on SK-MEL-5 melanoma and in the experiment on MALME-3M melanoma was above 100 µM throughout. The total growth inhibition concentration (TGI) with KM12 colon, with U251 CNS, in the experiment on COLO 205 colon, in the experiment on RPMI-8226 leukemia, with UACC-62 melanoma and with OVCAR-3 ovarian was above 100 µM each time. In addition, the TGI with IGROV1 ovarian and in the experiment on OVCAR-5 ovarian was above 100 µM in each case.

Consider `C[N+](C)(Cc1ccc(NC(=O)CCCC(=O)ON2C(=O)CCC2=O)cc1)c1ccccc1`, for which the TGI in the experiment on SK-OV-3 ovarian was above 100 µM; with CCRF-CEM leukemia, above 100 µM; with HCT-116 colon it was 18.2 µM; with ACHN renal, above 100 µM; in the experiment with SF-539 CNS, below 0.01 µM; in the experiment on MALME-3M melanoma it was below 0.01 µM. The TGI was above 100 µM with LOX IMVI melanoma; above 100 µM in the experiment with KM12 colon; above 100 µM in the experiment with U251 CNS; below 0.01 µM in the experiment on UACC-62 melanoma; above 100 µM with OVCAR-3 ovarian; below 0.01 µM in the experiment on OVCAR-5 ovarian.

In the case of `COC1=CC(=O)c2ccccc2C1(C)C1=NC(C)(C)CO1` (stereo unspecified), the total growth inhibition concentration (TGI) with SK-OV-3 ovarian, in the experiment on CCRF-CEM leukemia, in the experiment with HOP-62 NSCLC, in the experiment on NCI-H460 lung, with HCT-116 colon and with ACHN renal was above 100 µM each time. Further, the TGI in the experiment on SF-539 CNS, in the experiment with SK-MEL-5 melanoma, with MALME-3M melanoma, with KM12 colon, in the experiment on U251 CNS and with COLO 205 colon was above 100 µM in each case. Besides, the TGI with RPMI-8226 leukemia, in the experiment with UACC-62 melanoma, in the experiment with OVCAR-3 ovarian and with IGROV1 ovarian was above 100 µM each time.

On to `O=S(Cc1cc2c(cc1Br)OCO2)c1ccccc1` (stereo unspecified), for which the TGI in the experiment on SK-OV-3 ovarian is above 100 µM; with CCRF-CEM leukemia, 76.3 µM; in the experiment on HOP-62 NSCLC it was above 100 µM; in the experiment on NCI-H460 lung, above 100 µM; in the experiment on HCT-116 colon it was above 100 µM; in the experiment on ACHN renal, above 100 µM. The TGI in the experiment with SF-539 CNS was 91.2 µM; in the experiment on SK-MEL-5 melanoma, above 100 µM; in the experiment on MALME-3M melanoma it was above 100 µM; with LOX IMVI melanoma it was 30.7 µM; in the experiment with KM12 colon it was 59.4 µM; in the experiment with U251 CNS it was above 100 µM. Also, the TGI in the experiment with COLO 205 colon was above 100 µM; with RPMI-8226 leukemia it was 59.4 µM; with UACC-62 melanoma, above 100 µM; in the experiment with OVCAR-3 ovarian, above 100 µM; in the experiment with IGROV1 ovarian, above 100 µM; in the experiment on OVCAR-5 ovarian, above 100 µM.
